In one series the target is T1, FadD (Escherichia coli, UniProt P69451).
T1 construct: full-length, C-terminal His6 tag kept, pETDuet-1 (TJF032), expressed in E. coli BL21*(DE3) delta-fadD, partially purified by Ni-NTA
T1 sequence (P69451 1-561): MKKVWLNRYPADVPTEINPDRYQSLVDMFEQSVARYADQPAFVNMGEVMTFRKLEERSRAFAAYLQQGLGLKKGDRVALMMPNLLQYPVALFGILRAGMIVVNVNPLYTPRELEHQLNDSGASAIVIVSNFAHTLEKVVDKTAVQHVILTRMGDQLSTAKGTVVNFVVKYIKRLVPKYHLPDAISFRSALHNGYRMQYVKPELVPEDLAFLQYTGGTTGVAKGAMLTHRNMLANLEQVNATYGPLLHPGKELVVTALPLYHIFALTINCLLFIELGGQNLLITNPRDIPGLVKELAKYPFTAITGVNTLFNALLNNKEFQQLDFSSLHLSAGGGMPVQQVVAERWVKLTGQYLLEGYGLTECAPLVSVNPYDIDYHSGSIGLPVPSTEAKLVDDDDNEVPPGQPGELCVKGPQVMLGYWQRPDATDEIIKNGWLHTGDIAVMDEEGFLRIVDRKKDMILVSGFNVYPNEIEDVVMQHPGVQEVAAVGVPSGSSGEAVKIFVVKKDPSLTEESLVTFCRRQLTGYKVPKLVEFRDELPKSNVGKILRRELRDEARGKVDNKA
The series is described as follows: coupled AMP production assay (myokinase / pyruvate kinase / lactate dehydrogenase, NADH oxidation at […] nm). In kind it is biochemical. As to conditions: 2.5 mM ATP, 0.5 mM CoA, 8 mM MgCl2, 0.1% Triton X-100, pH 7.5, 30 °C; partially purified.

Substrate in the series “purified protein”: CCCCCCCC(=O)O
As to the kind of experiment: purified protein. As to conditions: 2.5 mM ATP, 0.5 mM CoA, 8 mM MgCl2, 0.1% Triton X-100, pH 7.5, 30 °C, partially purified.

For orientation: Km means the substrate concentration at which the rate is half of its maximum. As for `CCCCCCCC/C=C\CCCCCCCC(=O)O` [oleate], the Michaelis constant (Km) result at FadD is “Vmax (A) and Km (B) values for the indicated substrates”.

B1: FadD (Escherichia coli K-12) (protein)
chain: T1 sequence (P69451 1-561)
With B1, the Km in the series “purified protein” is 422 µM.

The values are drawn from paper PMC4493641, “Enhancement of E. coli acyl-CoA synthetase FadD activity on medium chain fatty acids” (PeerJ, 2015).
